# Data reported in the supplement of paper PMC10307832.
# Legend:
# Test in all cases: relative viability (nuclei count vs DMSO), 5 days (fraction); higher = more cells survive
# NCI-H650 = test system: NCI-H650
# Outline: (§1)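 Nuclei were stained with Hoechst during a one-step fixation (final 0.05% Triton X-100, 1% formaldehyde, 1 ug/ml Hoechst) carried out 5 days after dosing, then counted on 4× images. The cells, lung cancer lines in 1536-well plates, had been dosed by pin tool the day after seeding with one drug alone or a fixed anchor-drug dose plus five library-drug doses (not always all listed) in √10 steps. Relative viability is the nuclei count in treated wells divided by that in vehicle wells, and each value is the median of duplicate plates.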
# NCI-H838 = test system: NCI-H838
# Outline: as §1
# ChaGo-K-1 = test system: ChaGo-K-1
# Outline: as §1
# NCI-H1975 = test system: NCI-H1975
# Outline: as §1
# PC-3 [JPC-3] = test system: PC-3 [JPC-3]
# Outline: as §1
# NCI-H1355 = test system: NCI-H1355
# Outline: as §1
# HCC-78 = test system: HCC-78
# Outline: as §1
# NCI-H358 = test system: NCI-H358
# Outline: as §1
# BEN = test system: BEN
# Outline: as §1
# LK-2 = test system: LK-2
# Outline: as §1
# NCI-H1944 = test system: NCI-H1944
# Outline: as §1
# LC-2-ad = test system: LC-2-ad
# Outline: as §1
# NCI-H596 = test system: NCI-H596
# Outline: as §1
# SK-MES-1 = test system: SK-MES-1
# Outline: as §1
# NCI-H661 = test system: NCI-H661
# Outline: as §1
# NCI-H1666 = test system: NCI-H1666
# Outline: as §1
# LXF-289 = test system: LXF-289
# Outline: as §1
# LU99A = test system: LU99A
# Outline: as §1
# NCI-H1651 = test system: NCI-H1651
# Outline: as §1
# NCI-H2087 = test system: NCI-H2087
# Outline: as §1
# LCLC-97TM1 = test system: LCLC-97TM1
# Outline: as §1
smiles,measurement,setting,value
Cc1sc2c(c1C)C(c1ccc(Cl)cc1)=N[C@@H](CC(=O)OC(C)(C)C)c1nnc(C)n1-2 [JQ1] + CS(=O)(=O)N1CCN(Cc2cc3nc(-c4cccc5[nH]ncc45)nc(N4CCOCC4)c3s2)CC1 [Pictilisib] (partner 1 µM),relative viability,NCI-H650; first compound 0.04 µM,0.746
same,relative viability,NCI-H650; first compound 0.1265 µM,0.654
same,relative viability,NCI-H650; first compound 0.4 µM,0.499
same,relative viability,NCI-H650; first compound 1.265 µM,0.283
same,relative viability,NCI-H650; first compound 4 µM,0.273
same,relative viability,NCI-H838; first compound 0.04 µM,0.397
same,relative viability,NCI-H838; first compound 0.1265 µM,0.3
same,relative viability,NCI-H838; first compound 0.4 µM,0.319
same,relative viability,NCI-H838; first compound 1.265 µM,0.208
same,relative viability,NCI-H838; first compound 4 µM,0.232
same,relative viability,ChaGo-K-1; first compound 0.04 µM,0.752
same,relative viability,ChaGo-K-1; first compound 0.4 µM,0.658
same,relative viability,ChaGo-K-1; first compound 1.265 µM,0.407
same,relative viability,ChaGo-K-1; first compound 4 µM,0.43
same,relative viability,NCI-H1975; first compound 0.04 µM,0.298
same,relative viability,NCI-H1975; first compound 0.1265 µM,0.246
same,relative viability,NCI-H1975; first compound 0.4 µM,0.27
same,relative viability,NCI-H1975; first compound 1.265 µM,0.214
same,relative viability,NCI-H1975; first compound 4 µM,0.204
same,relative viability,PC-3 [JPC-3]; first compound 0.04 µM,0.69
same,relative viability,PC-3 [JPC-3]; first compound 0.1265 µM,0.727
same,relative viability,PC-3 [JPC-3]; first compound 0.4 µM,0.443
same,relative viability,PC-3 [JPC-3]; first compound 1.265 µM,0.501
same,relative viability,PC-3 [JPC-3]; first compound 4 µM,0.382
same,relative viability,NCI-H1355; first compound 0.04 µM,0.429
same,relative viability,NCI-H1355; first compound 0.1265 µM,0.426
same,relative viability,NCI-H1355; first compound 0.4 µM,0.456
same,relative viability,NCI-H1355; first compound 1.265 µM,0.334
same,relative viability,NCI-H1355; first compound 4 µM,0.281
same,relative viability,HCC-78; first compound 0.04 µM,0.212
same,relative viability,HCC-78; first compound 0.1265 µM,0.313
same,relative viability,HCC-78; first compound 0.4 µM,0.185
same,relative viability,HCC-78; first compound 1.265 µM,0.214
same,relative viability,HCC-78; first compound 4 µM,0.192
same,relative viability,NCI-H358; first compound 0.04 µM,0.329
same,relative viability,NCI-H358; first compound 0.1265 µM,0.431
same,relative viability,NCI-H358; first compound 0.4 µM,0.376
same,relative viability,NCI-H358; first compound 1.265 µM,0.386
same,relative viability,NCI-H358; first compound 4 µM,0.336
same,relative viability,BEN; first compound 0.04 µM,0.481
same,relative viability,BEN; first compound 0.1265 µM,0.486
same,relative viability,BEN; first compound 0.4 µM,0.461
same,relative viability,BEN; first compound 1.265 µM,0.272
same,relative viability,BEN; first compound 4 µM,0.205
same,relative viability,LK-2; first compound 0.04 µM,0.514
same,relative viability,LK-2; first compound 0.1265 µM,0.511
same,relative viability,LK-2; first compound 0.4 µM,0.35
same,relative viability,LK-2; first compound 1.265 µM,0.223
same,relative viability,LK-2; first compound 4 µM,0.226
same,relative viability,NCI-H1944; first compound 0.04 µM,0.357
same,relative viability,NCI-H1944; first compound 0.1265 µM,0.332
same,relative viability,NCI-H1944; first compound 0.4 µM,0.311
same,relative viability,NCI-H1944; first compound 1.265 µM,0.288
same,relative viability,NCI-H1944; first compound 4 µM,0.307
same,relative viability,LC-2-ad; first compound 0.04 µM,0.386
same,relative viability,LC-2-ad; first compound 0.1265 µM,0.605
same,relative viability,LC-2-ad; first compound 0.4 µM,0.263
same,relative viability,LC-2-ad; first compound 1.265 µM,0.121
same,relative viability,LC-2-ad; first compound 4 µM,0.117
same,relative viability,NCI-H596; first compound 0.04 µM,0.412
same,relative viability,NCI-H596; first compound 0.1265 µM,0.395
same,relative viability,NCI-H596; first compound 0.4 µM,0.477
same,relative viability,NCI-H596; first compound 1.265 µM,0.365
same,relative viability,NCI-H596; first compound 4 µM,0.293
same,relative viability,SK-MES-1; first compound 0.04 µM,0.351
same,relative viability,SK-MES-1; first compound 0.1265 µM,0.299
same,relative viability,SK-MES-1; first compound 0.4 µM,0.298
same,relative viability,SK-MES-1; first compound 1.265 µM,0.179
same,relative viability,SK-MES-1; first compound 4 µM,0.202
same,relative viability,NCI-H661; first compound 0.04 µM,0.426
same,relative viability,NCI-H661; first compound 0.1265 µM,0.326
same,relative viability,NCI-H661; first compound 0.4 µM,0.337
same,relative viability,NCI-H661; first compound 1.265 µM,0.365
same,relative viability,NCI-H661; first compound 4 µM,0.294
same,relative viability,NCI-H1666; first compound 0.04 µM,0.314
same,relative viability,NCI-H1666; first compound 0.1265 µM,0.526
same,relative viability,NCI-H1666; first compound 0.4 µM,0.414
same,relative viability,NCI-H1666; first compound 1.265 µM,0.274
same,relative viability,NCI-H1666; first compound 4 µM,0.288
same,relative viability,LXF-289; first compound 0.04 µM,0.792
same,relative viability,LXF-289; first compound 0.1265 µM,0.783
same,relative viability,LXF-289; first compound 0.4 µM,0.629
same,relative viability,LXF-289; first compound 1.265 µM,0.462
same,relative viability,LXF-289; first compound 4 µM,0.409
same,relative viability,LU99A; first compound 0.04 µM,0.322
same,relative viability,LU99A; first compound 0.1265 µM,0.32
same,relative viability,LU99A; first compound 0.4 µM,0.398
same,relative viability,LU99A; first compound 1.265 µM,0.201
same,relative viability,LU99A; first compound 4 µM,0.203
same,relative viability,NCI-H1651; first compound 0.04 µM,0.476
same,relative viability,NCI-H1651; first compound 0.1265 µM,0.451
same,relative viability,NCI-H1651; first compound 0.4 µM,0.335
same,relative viability,NCI-H1651; first compound 1.265 µM,0.271
same,relative viability,NCI-H1651; first compound 4 µM,0.245
same,relative viability,NCI-H2087; first compound 0.04 µM,0.792
same,relative viability,NCI-H2087; first compound 0.4 µM,1.05
same,relative viability,NCI-H2087; first compound 1.265 µM,0.318
same,relative viability,NCI-H2087; first compound 4 µM,0.384
same,relative viability,LCLC-97TM1; first compound 0.1265 µM,0.28
same,relative viability,LCLC-97TM1; first compound 0.4 µM,0.176
same,relative viability,LCLC-97TM1; first compound 1.265 µM,0.105
same,relative viability,LCLC-97TM1; first compound 4 µM,0.107
